{"source": "BindingDB's records for patent US12415785", "about": "(Ctxt, 2025)", "molecular_target": "T1, Stimulator of interferon genes protein [1-379,R71H,G230A,H232R,R293Q] (Homo sapiens, UniProt Q86WV6, G230A/H232R/R293Q/R71H)", "T1 construct": "1-379", "T1 sequence (Q86WV6 whole entry R71H/G230A/H232R/R293Q, looked up)": "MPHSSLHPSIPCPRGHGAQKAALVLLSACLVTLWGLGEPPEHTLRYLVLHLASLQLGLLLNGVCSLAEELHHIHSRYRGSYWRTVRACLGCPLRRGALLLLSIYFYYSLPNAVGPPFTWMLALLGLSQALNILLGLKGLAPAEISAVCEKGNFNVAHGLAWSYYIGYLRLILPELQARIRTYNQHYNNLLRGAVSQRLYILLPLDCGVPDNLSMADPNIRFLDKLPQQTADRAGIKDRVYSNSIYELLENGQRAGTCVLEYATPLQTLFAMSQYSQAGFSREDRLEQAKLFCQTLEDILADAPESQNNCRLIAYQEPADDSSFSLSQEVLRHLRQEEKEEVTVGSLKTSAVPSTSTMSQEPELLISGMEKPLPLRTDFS", "test": "Surface Plasmon Resonance (SPR)", "description": "Briefly, approximately 20 nmol of recombinant STING protein in 1×TBS buffer (25 mM Tris-HCl, pH 7.5, 150 mM NaCl, 5 mM DTT) was mixed with of EZ-Link™ Sulfo-NHS-LC-LC-Biotin (Thermofisher Scientific, cat #21338) at a molar ratio of 1 to 0.6 and incubated on ice for 2 hours. To remove any unreacted biotin reagent, protein/biotin mixture was passed through a Superdex 75 (10/300 GL) column equilibrated with 10 mM HEPES, pH7.4, 150 mM NaCl, 5 mM DTT, 5%[v/v] glycerol. A protein peak containing biotinylated huSTING protein was collected and stored in aliquots at −80° C.Streptavidin was simultaneously immobilized in all four channels of a CM5 sensor chip docked in a Biacore instrument (either Biacore S200 or Biacore T200, GE Healthcare) as described previously (Zender 2013). Minimally biotinylated STING protein was captured onto a streptavidin coated chip surface at 8° C. in SPR binding buffer (50 mM HEPES, pH 7.4, 150 mM NaCl, 2%[v/v] DMSO) by gradually injecting in a single channel at a constant flow-rate of 2 μL/min until desired capture level was achieved, typically 3000 to 7000 RU (1 RU=1 pg/mm2).All binding experiments were performed at 8° C. in SPR binding buffer. To determine binding affinity, compound interaction with immobilized STING protein was analysed using dose-response experiments. Fresh 10 mM DMSO solutions of compound were diluted directly into SPR binding buffer typically to a concentration of 50 μM and then further diluted 2-fold or 3-fold aiming for either a 5- or 7-point concentration series range. Each ligand concentration series was injected at a constant flow rate of 60 μL/min with a 90 second association and a 180 second dissociation time.", "data": [{"smiles": "COc1c(C(N)=O)ccc2c1nc(-c1ccc(Cl)cc1C(=O)O)n2CCn1c(-c2ccc(Cl)cc2C(=O)O)nc2c(OC)c(C(N)=O)ccc21", "note": "[US12415785, Example 1]", "values": [{"measurement": "Kd", "value": 16.6, "unit": "µM"}]}, {"smiles": "NC(=O)c1ccc2c(c1)nc(-c1ccccc1C(=O)O)n2CCn1c(-c2ccccc2C(=O)O)nc2cc(C(N)=O)ccc21", "note": "[US12415785, Example 2]", "values": [{"measurement": "Kd", "value": 67, "unit": "µM"}]}, {"smiles": "NC(=O)c1ccc2c(c1)nc(-c1ccccc1-c1nn[nH]n1)n2CCn1c(-c2ccccc2-c2nnn[nH]2)nc2cc(C(N)=O)ccc21", "note": "[US12415785, Example 5]", "values": [{"measurement": "Kd", "value": 19.3, "unit": "µM"}]}, {"smiles": "COc1c(C(N)=O)ccc2c1nc(-c1ccccc1-c1nn[nH]n1)n2CCn1c(-c2ccccc2-c2nn[nH]n2)nc2c(OC)c(C(N)=O)ccc21", "note": "[US12415785, Example 6]", "values": [{"measurement": "Kd", "value": 11.9, "unit": "µM"}]}, {"smiles": "COc1c(C(N)=O)ccc2c1nc(-c1ccc(Cl)cc1-c1nn[nH]n1)n2CCn1c(-c2ccc(Cl)cc2-c2nn[nH]n2)nc2c(OC)c(C(N)=O)ccc21", "note": "[US12415785, Example 9]", "values": [{"measurement": "Kd", "value": 2.66, "unit": "µM"}]}, {"smiles": "COc1c(C(N)=O)ccc2c1nc(-c1c(F)cccc1C(=O)O)n2CCn1c(-c2c(F)cccc2C(=O)O)nc2c(OC)c(C(N)=O)ccc21", "note": "[US12415785, Example 10]", "values": [{"measurement": "Kd", "value": 0.183, "unit": "µM"}]}, {"smiles": "COc1c(C(N)=O)ccc2c1nc(-c1c(F)cc(Cl)cc1C(=O)O)n2CCn1c(-c2c(F)cc(Cl)cc2C(=O)O)nc2c(OC)c(C(N)=O)ccc21", "note": "[US12415785, Example 11]", "values": [{"measurement": "Kd", "value": 0.078, "unit": "µM"}]}, {"smiles": "COc1c(C(N)=O)ccc2c1nc(-c1cc(F)c(F)cc1C(=O)O)n2CCn1c(-c2cc(F)c(F)cc2C(=O)O)nc2c(OC)c(C(N)=O)ccc21", "note": "[US12415785, Example 15]", "values": [{"measurement": "Kd", "value": 6.34, "unit": "µM"}]}, {"smiles": "COc1c(C(N)=O)ccc2c1nc(-c1c(F)cc(F)cc1C(=O)O)n2CCn1c(-c2c(F)cc(F)cc2C(=O)O)nc2c(OC)c(C(N)=O)ccc21", "note": "[US12415785, Example 16]", "values": [{"measurement": "Kd", "value": 0.166, "unit": "µM"}]}, {"smiles": "COc1c(C(N)=O)ccc2c1nc(-c1ccc(Cl)cc1-c1n[nH]c(=O)o1)n2CCn1c(-c2ccc(Cl)cc2-c2n[nH]c(=O)o2)nc2c(OC)c(C(N)=O)ccc21", "note": "[US12415785, Example 17]", "values": [{"measurement": "Kd", "value": 0.416, "unit": "µM"}]}, {"smiles": "COc1c(C(N)=O)cc(F)c2c1nc(-c1c(F)cc(F)cc1C(=O)O)n2CCn1c(-c2c(F)cc(F)cc2C(=O)O)nc2c(OC)c(C(N)=O)cc(F)c21", "note": "[US12415785, Example 18]", "values": [{"measurement": "Kd", "value": 0.144, "unit": "µM"}]}, {"smiles": "COc1c(C(N)=O)ccc2c1nc(-c1c(I)cccc1C(=O)O)n2CCn1c(-c2c(I)cccc2C(=O)O)nc2c(OC)c(C(N)=O)ccc21", "note": "[US12415785, Example 19.1]", "values": [{"measurement": "Kd", "value": 0.002, "unit": "µM"}]}, {"smiles": "COc1c(C(N)=O)cc(F)c2c1nc(-c1ccc(Cl)cc1C(=O)O)n2CCn1c(-c2ccc(Cl)cc2C(=O)O)nc2c(OC)c(C(N)=O)cc(F)c21", "note": "[US12415785, Example 20]", "values": [{"measurement": "Kd", "value": 12.8, "unit": "µM"}]}, {"smiles": "COC(=O)c1c(Br)cccc1-c1nc2c(OC)c(C(N)=O)ccc2n1CCn1c(-c2cccc(Br)c2C(=O)OC)nc2c(OC)c(C(N)=O)ccc21", "note": "[US12415785, Example 21]", "values": [{"measurement": "Kd", "value": 1.09, "unit": "µM"}]}, {"smiles": "COc1c(C(N)=O)ccc2c1nc(-c1c(Cl)cccc1C(=O)O)n2CCn1c(-c2c(Cl)cccc2C(=O)O)nc2c(OC)c(C(N)=O)ccc21", "note": "[US12415785, Example 22]", "values": [{"measurement": "Kd", "value": 0.002, "unit": "µM"}]}, {"smiles": "COc1c(C(N)=O)ccc2c1nc(-c1c(Cl)cccc1-c1nn[nH]n1)n2CCn1c(-c2c(Cl)cccc2-c2nn[nH]n2)nc2c(OC)c(C(N)=O)ccc21", "note": "[US12415785, Example 23]", "values": [{"measurement": "Kd", "value": 0.002, "unit": "µM"}]}, {"smiles": "COc1c(C(N)=O)ccc2c1nc(-c1ccc(Cl)cc1-c1cn[nH]n1)n2CCn1c(-c2ccc(Cl)cc2-c2cn[nH]n2)nc2c(OC)c(C(N)=O)ccc21", "note": "[US12415785, Example 24]", "values": [{"measurement": "Kd", "value": 22, "unit": "µM"}]}, {"smiles": "COc1c(C(N)=O)ccc2c1nc(-c1ccc(C)cc1C(=O)O)n2CCn1c(-c2ccc(C)cc2C(=O)O)nc2c(OC)c(C(N)=O)ccc21", "note": "[US12415785, Example 25]", "values": [{"measurement": "Kd", "value": 19.3, "unit": "µM"}]}, {"smiles": "COc1c(C(N)=O)ccc2c1nc(-c1cc(C)ccc1C(=O)O)n2CCn1c(-c2cc(C)ccc2C(=O)O)nc2c(OC)c(C(N)=O)ccc21", "note": "[US12415785, Example 26]", "values": [{"measurement": "Kd", "value": 32.5, "unit": "µM"}]}, {"smiles": "NC(=O)c1ccc2c(c1)nc(-c1c(Br)cccc1C(=O)O)n2CCn1c(-c2c(Br)cccc2C(=O)O)nc2cc(C(N)=O)ccc21", "note": "[US12415785, Example 29.1]", "values": [{"measurement": "Kd", "value": 0.936, "unit": "µM"}]}, {"smiles": "COc1c(C(N)=O)ccc2c1nc(-c1cnccc1C(=O)O)n2CCn1c(-c2cnccc2C(=O)O)nc2c(OC)c(C(N)=O)ccc21", "note": "[US12415785, Example 30]", "values": [{"measurement": "Kd", "value": 90, "unit": "µM"}]}, {"smiles": "COc1c(C(N)=O)ccc2c1nc(-c1ncc(Cl)cc1C(=O)O)n2CCn1c(-c2ncc(Cl)cc2C(=O)O)nc2c(OC)c(C(N)=O)ccc21", "note": "[US12415785, Example 31]", "values": [{"measurement": "Kd", "value": 55, "unit": "µM"}]}, {"smiles": "CCc1ccc(-c2nc3c(OC)c(C(N)=O)ccc3n2CCn2c(-c3ccc(CC)cc3C(=O)O)nc3c(OC)c(C(N)=O)ccc32)c(C(=O)O)c1", "note": "[US12415785, Example 33]", "values": [{"measurement": "Kd", "value": 78, "unit": "µM"}]}, {"smiles": "COc1c(C(N)=O)ccc2c1nc(-c1ccc(Cl)cc1C(=O)O)n2C/C=C/Cn1c(-c2ccc(Cl)cc2C(=O)O)nc2c(OC)c(C(N)=O)ccc21", "note": "[US12415785, Example 34]", "values": [{"measurement": "Kd", "value": 26, "unit": "µM"}]}, {"smiles": "COc1c(C(N)=O)ccc2c1nc(-c1ccc(Cl)cc1C(=O)O)n2CCCn1c(-c2ccc(Cl)cc2C(=O)O)nc2c(OC)c(C(N)=O)ccc21", "note": "[US12415785, Example 35]", "values": [{"measurement": "Kd", "value": 35, "unit": "µM"}]}, {"smiles": "NC(=O)c1ccc2c(c1)nc(-c1ccc(Cl)cc1C(=O)O)n2CCn1c(-c2ccc(Cl)cc2C(=O)O)nc2cc(C(N)=O)ccc21", "note": "[US12415785, Example 39]", "values": [{"measurement": "Kd", "value": 300, "unit": "µM"}]}, {"smiles": "COc1c(C(N)=O)ccc2c1nc(-c1cccc(Cl)c1-c1nn[nH]n1)n2CCn1c(-c2cccc(Cl)c2-c2nn[nH]n2)nc2c(OC)c(C(N)=O)ccc21", "note": "[US12415785, Example 40]", "values": [{"measurement": "Kd", "value": 64, "unit": "µM"}]}, {"smiles": "COc1ccc(-c2nc3c(OC)c(C(N)=O)ccc3n2CCn2c(-c3ccc(OC)cc3C(=O)O)nc3c(OC)c(C(N)=O)ccc32)c(C(=O)O)c1", "note": "[US12415785, Example 41]", "values": [{"measurement": "Kd", "value": 83, "unit": "µM"}]}, {"smiles": "COc1c(C(N)=O)ccc2c1nc(-c1cc(Cl)ccc1-c1nn[nH]n1)n2CCn1c(-c2cc(Cl)ccc2-c2nn[nH]n2)nc2c(OC)c(C(N)=O)ccc21", "note": "[US12415785, Example 42]", "values": [{"measurement": "Kd", "value": 14.8, "unit": "µM"}]}, {"smiles": "COc1c(C(N)=O)ccc2c1nc(-c1c(F)cc(F)cc1-c1nn[nH]n1)n2CCn1c(-c2c(F)cc(F)cc2-c2nn[nH]n2)nc2c(OC)c(C(N)=O)ccc21", "note": "[US12415785, Example 43]", "values": [{"measurement": "Kd", "value": 0.096, "unit": "µM"}]}, {"smiles": "COc1c(C(N)=O)ccc2c1nc(-c1c(F)cc(F)cc1-c1n[nH]c(=O)o1)n2CCn1c(-c2c(F)cc(F)cc2-c2n[nH]c(=O)o2)nc2c(OC)c(C(N)=O)ccc21", "note": "[US12415785, Example 44]", "values": [{"measurement": "Kd", "value": 0.423, "unit": "µM"}]}, {"smiles": "COc1c(C(N)=O)ccc2c1nc(-c1c(F)cc(Cl)cc1-c1nn[nH]n1)n2CCn1c(-c2c(F)cc(Cl)cc2-c2nn[nH]n2)nc2c(OC)c(C(N)=O)ccc21", "note": "[US12415785, Example 46]", "values": [{"measurement": "Kd", "value": 0.025, "unit": "µM"}]}, {"smiles": "COc1c(C(N)=O)ccc2c1nc(-c1c(F)cccc1-c1nn[nH]n1)n2CCn1c(-c2c(F)cccc2-c2nn[nH]n2)nc2c(OC)c(C(N)=O)ccc21", "note": "[US12415785, Example 48]", "values": [{"measurement": "Kd", "value": 0.03, "unit": "µM"}]}, {"smiles": "COc1c(C(N)=O)ccc2c1nc(-c1c(F)cccc1-c1n[nH]c(=O)o1)n2CCn1c(-c2c(F)cccc2-c2n[nH]c(=O)o2)nc2c(OC)c(C(N)=O)ccc21", "note": "[US12415785, Example 49]", "values": [{"measurement": "Kd", "value": 0.031, "unit": "µM"}]}, {"smiles": "COc1c(C(N)=O)ccc2c1nc(-c1c(F)cc(Cl)cc1-c1n[nH]c(=O)o1)n2CCn1c(-c2c(F)cc(Cl)cc2-c2n[nH]c(=O)o2)nc2c(OC)c(C(N)=O)ccc21", "note": "[US12415785, Example 50]", "values": [{"measurement": "Kd", "value": 0.014, "unit": "µM"}]}]}
